Reference: ChEMBL document CHEMBL1130471, “RES-701-1/endothelin-1 hybrid peptide having a potent binding activity for type B receptor” (Bioorg Med Chem Lett, 1997)

molecular target: T1, Endothelin receptor type B (Bos taurus, UniProt P28088); test: Binding activity to ET-B receptor on bovine cerebellum membrane; format: tissue-based
T1 sequence (P28088 whole entry): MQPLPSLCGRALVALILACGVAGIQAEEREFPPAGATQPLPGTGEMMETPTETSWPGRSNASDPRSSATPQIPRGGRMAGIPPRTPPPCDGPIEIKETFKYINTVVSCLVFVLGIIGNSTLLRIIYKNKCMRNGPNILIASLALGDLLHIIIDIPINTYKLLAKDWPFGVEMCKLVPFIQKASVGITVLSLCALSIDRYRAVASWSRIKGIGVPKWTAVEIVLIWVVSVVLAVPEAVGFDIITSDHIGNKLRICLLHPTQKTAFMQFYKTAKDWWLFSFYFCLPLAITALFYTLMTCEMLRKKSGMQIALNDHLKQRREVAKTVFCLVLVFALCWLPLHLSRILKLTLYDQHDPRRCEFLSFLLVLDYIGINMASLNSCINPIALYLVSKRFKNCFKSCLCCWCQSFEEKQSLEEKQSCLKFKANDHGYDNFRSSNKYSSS

First: C[C@@H]1NC(=O)[C@H]([C@@H](C)O)NC(=O)CNC(=O)[C@H](Cc2c[nH]cn2)NC(=O)[C@H](Cc2c[nH]c3ccccc23)NC(=O)[C@H](CC(N)=O)NC(=O)CNC(=O)[C@H](Cc2c[nH]c3ccccc23)NC(=O)[C@H](Cc2ccc(O)cc2)NC(=O)[C@H](Cc2ccc(O)cc2)NC(=O)[C@H](CC(N)=O)NC(=O)[C@H](Cc2ccccc2)NC(=O)[C@H](Cc2ccccc2)NC(=O)[C@H](Cc2c[nH]c3ccccc23)NC(=O)[C@H](CC(=O)O)NC(=O)[C@@H]2CCCN2C1=O
Second: C[C@H](NC(=O)[C@@H](NC(=O)CNC(=O)[C@H](Cc1c[nH]cn1)NC(=O)[C@H](Cc1c[nH]c2ccccc12)NC(=O)[C@H](CC(N)=O)NC(=O)CN)[C@@H](C)O)C(=O)N1CCC[C@H]1C(=O)N[C@@H](CC(=O)O)C(=O)N[C@@H](Cc1c[nH]c2ccccc12)C(=O)N[C@@H](Cc1ccccc1)C(=O)N[C@@H](Cc1ccccc1)C(=O)N[C@@H](CC(N)=O)C(=O)N[C@@H](Cc1ccc(O)cc1)C(=O)N[C@@H](Cc1ccc(O)cc1)C(=O)N[C@@H](Cc1c[nH]c2ccccc12)C(=O)O
The IC50 of the first is higher: > 5 µM for the first, 5 µM for the second. The second is the more potent here.

First: CC[C@H](C)[C@H](NC(=O)[C@H](CC(=O)O)NC(=O)[C@H](CC(C)C)NC(=O)[C@H](Cc1cnc[nH]1)NC(=O)[C@@H]1CSSC[C@H](N)C(=O)N[C@@H](CO)C(=O)N[C@H]2CSSC[C@H](NC(=O)[C@H](CCC(=O)O)NC(=O)[C@H](CCCCN)NC(=O)[C@H](CC(=O)O)NC(=O)[C@H](CCSC)NC(=O)[C@H](CC(C)C)NC(=O)[C@H](CO)NC(=O)[C@H](CO)NC2=O)C(=O)N[C@@H](C(C)C)C(=O)N[C@@H](Cc2ccc(O)cc2)C(=O)N[C@@H](Cc2ccccc2)C(=O)N1)C(=O)N[C@H](C(=O)N[C@@H](Cc1c[nH]c2ccccc12)C(=O)O)[C@@H](C)CC [ENDOTHELIN]
Second: H-LYFCHQDVIW-OH
The IC50 of the first is 3-fold lower: 1 µM for the first, 3 µM for the second.

First: H-VYFSHLDIIW-OH
Second: H-VYYCHLDIIW-OH
The IC50 of the first is 3-fold lower: 1 µM for the first, 3 µM for the second.

Work on H-WFFNYYW-OH yielded an IC50 of 3 µM.

molecular target: T2, Endothelin-1 receptor (Bos taurus, UniProt P21450); test: Binding activity to ET-A receptor on bovine lung membrane was determined; format: tissue-based
T2 sequence (P21450 whole entry): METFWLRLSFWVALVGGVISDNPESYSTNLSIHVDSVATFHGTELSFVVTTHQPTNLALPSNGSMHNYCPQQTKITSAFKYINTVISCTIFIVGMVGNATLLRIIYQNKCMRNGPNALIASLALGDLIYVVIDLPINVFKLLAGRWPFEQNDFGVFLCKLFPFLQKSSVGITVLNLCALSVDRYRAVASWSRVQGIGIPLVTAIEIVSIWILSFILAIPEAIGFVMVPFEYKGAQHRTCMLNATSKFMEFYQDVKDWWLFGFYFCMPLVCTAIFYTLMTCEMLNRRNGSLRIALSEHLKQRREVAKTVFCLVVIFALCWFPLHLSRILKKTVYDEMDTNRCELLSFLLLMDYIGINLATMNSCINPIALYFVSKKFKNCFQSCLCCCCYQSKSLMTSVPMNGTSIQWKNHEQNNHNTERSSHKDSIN

`CC[C@H](C)[C@H](NC(=O)[C@H](CC(=O)O)NC(=O)[C@H](CC(C)C)NC(=O)[C@H](Cc1c[nH]cn1)NC(=O)[C@H](C)NC(=O)[C@H](Cc1ccccc1)NC(=O)[C@H](Cc1ccc(O)cc1)NC(=O)[C@@H](NC(=O)[C@H](Cc1c[nH]c2ccccc12)NC(=O)[C@@H]1CC(=O)NCC(=O)N[C@@H](CC(N)=O)C(=O)N[C@@H](Cc2c[nH]c3ccccc23)C(=O)N[C@@H](Cc2c[nH]cn2)C(=O)NCC(=O)N[C@@H]([C@@H](C)O)C(=O)N[C@@H](C)C(=O)N2CCC[C@H]2C(=O)N1)C(C)C)C(=O)N[C@H](C(=O)N[C@@H](Cc1c[nH]c2ccccc12)C(=O)O)[C@@H](C)CC` and `CC[C@H](C)[C@H](NC(=O)[C@H](CC(=O)O)NC(=O)[C@H](CC(C)C)NC(=O)[C@H](Cc1c[nH]cn1)NC(=O)[C@H](C)NC(=O)[C@H](Cc1ccc(O)cc1)NC(=O)[C@H](Cc1ccc(O)cc1)NC(=O)[C@@H](NC(=O)[C@H](Cc1c[nH]c2ccccc12)NC(=O)[C@@H]1CC(=O)NCC(=O)N[C@@H](CC(N)=O)C(=O)N[C@@H](Cc2c[nH]c3ccccc23)C(=O)N[C@@H](Cc2c[nH]cn2)C(=O)NCC(=O)N[C@@H]([C@@H](C)O)C(=O)N[C@@H](C)C(=O)N2CCC[C@H]2C(=O)N1)C(C)C)C(=O)N[C@H](C(=O)N[C@@H](Cc1c[nH]c2ccccc12)C(=O)O)[C@@H](C)CC` cannot be ordered by IC50: > 0.1 µM for the first, > 0.1 µM for the second.

`C[C@@H]1NC(=O)[C@H]([C@@H](C)O)NC(=O)CNC(=O)[C@H](Cc2c[nH]cn2)NC(=O)[C@H](Cc2c[nH]c3ccccc23)NC(=O)[C@H](CC(N)=O)NC(=O)CNC(=O)C[C@@H](C(=O)N[C@@H](Cc2c[nH]c3ccccc23)C(=O)N[C@@H](Cc2ccccc2)C(=O)N[C@@H](Cc2ccccc2)C(=O)N[C@@H](CC(N)=O)C(=O)N[C@@H](Cc2ccc(O)cc2)C(=O)N[C@@H](Cc2ccc(O)cc2)C(=O)N[C@@H](Cc2c[nH]c3ccccc23)C(=O)O)NC(=O)[C@@H]2CCCN2C1=O` and `CC[C@H](C)[C@H](NC(=O)[C@@H](NC(=O)[C@H](CC(=O)O)NC(=O)[C@H](CCC(N)=O)NC(=O)[C@H](Cc1c[nH]cn1)NC(=O)[C@H](C)NC(=O)[C@H](Cc1ccccc1)NC(=O)[C@H](Cc1ccc(O)cc1)NC(=O)[C@H](CC(C)C)NC(=O)[C@H](Cc1c[nH]c2ccccc12)NC(=O)[C@@H]1CC(=O)NCC(=O)N[C@@H](CC(N)=O)C(=O)N[C@@H](Cc2c[nH]c3ccccc23)C(=O)N[C@@H](Cc2c[nH]cn2)C(=O)NCC(=O)N[C@@H]([C@@H](C)O)C(=O)N[C@@H](C)C(=O)N2CCC[C@H]2C(=O)N1)C(C)C)C(=O)N[C@@H](Cc1c[nH]c2ccccc12)C(=O)O` cannot be ordered by IC50: > 5 µM for the first, > 0.1 µM for the second.
